Experimental findings from patent US9586914B2, “Modulators of C3a receptors” (THE UNIVERSITY OF QUEENSLAND, priority 2011, dated 2017) are described below.

For one assay, the target named is T1, C3a receptor (C3aR) (Homo sapiens, UniProt Q16581).
T1 construct: peripheral blood mononuclear cells were isolated from buffy coat (obtained from Australian Red Cross Blood Service, Kelvin Grove); endogenous in cells; host or cells: primary human monocyte-derived macrophages (HMDM) differentiated from CD14+ monocytes of donor buffy coat
T1 sequence (Q16581 1-482): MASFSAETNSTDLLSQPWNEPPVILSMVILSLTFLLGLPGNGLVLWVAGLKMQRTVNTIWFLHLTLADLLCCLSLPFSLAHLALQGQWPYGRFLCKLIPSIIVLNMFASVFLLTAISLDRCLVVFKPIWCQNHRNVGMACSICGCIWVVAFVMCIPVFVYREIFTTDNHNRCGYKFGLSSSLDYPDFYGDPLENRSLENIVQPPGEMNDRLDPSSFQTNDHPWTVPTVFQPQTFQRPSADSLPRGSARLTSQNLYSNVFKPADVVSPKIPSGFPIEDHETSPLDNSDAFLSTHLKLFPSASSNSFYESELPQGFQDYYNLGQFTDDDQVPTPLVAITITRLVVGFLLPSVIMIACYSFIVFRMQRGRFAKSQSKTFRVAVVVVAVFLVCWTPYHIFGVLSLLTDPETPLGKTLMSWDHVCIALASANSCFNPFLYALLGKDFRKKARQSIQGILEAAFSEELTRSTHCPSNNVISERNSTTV
The assay can be described thus: Competitive binding with [^125I]-C3a in HMDM. The settings on record: for remaining activity at 20 µM: 1 h, read-out: %[^125I]-C3a binding. An excerpt:
For HMDM, peripheral blood mononuclear cells were isolated from buffy coat (obtained from Australian Red Cross Blood Service, Kelvin Grove) using Ficoll-paque density centrifugation (GE Healthcare Bio-Science, Uppsala, Sweden). CD^14+ monocytes were positively selected using CD^14+ MACS magnetic beads (Miltenyi Biotech, Auburn, Calif., USA). […] Cells were harvested by gentle scraping in saline solution and replated for use on Day 7. […] Unbound radioactivity was removed by filtration through glass microfiber filters GF/B (Whatman Iner. […] The filter was washed 3 times with cold buffer (50 mM Tris-HCl) pH 7.4. […] The −log IC50 for each compound was calculated for separate experiments and express as an arithmetic mean standard error (SE). IC50 values were expressed as a geometric mean.

The target of the next assay is T2, C3aR (Homo sapiens, UniProt Q16581).
T2 construct: peripheral blood mononuclear cells were isolated from buffy coat (obtained from Australian Red Cross Blood Service, Kelvin Grove); endogenous in cells; host or cells: primary human monocyte-derived macrophages (HMDM) differentiated from CD14+ monocytes of donor buffy coat
T2 sequence (Q16581 1-482): T1 sequence (Q16581 1-482)
The assay can be described thus: Calcium mobilization assay in HMDM (agonist/antagonist activity). The class given is cell-based. The settings on record: for Emax at 10 µM: read-out: % agonist; for IC50: read-out: Antagonist Activity Ca^2+ IC50; for EC50: Table 9, Ca^2+ mobilization, read-out: EC50. As for the experimental part:
Harvested HMDM cells were washed with 0.9% NaCl solution by centrifugation at 2500 rpm for 5 min, followed by resuspension of the cell pellet with complete media. Cells were seeded at 5×10^4 cells/well in a 96-well black-wall, clear bottom plate (DKSH, Zurich), and left overnight to adhere at 37° C. On the day of the experiment, supernatant was removed and cells were incubated in dye loading buffer (Hank's Balanced Salt Solution (HBSS) with 4 μM Fluo-3, 25 μL pluronic acid, 1% fetal bovine serum (FBS) and 2.5 mM probenecid) for one hour at 37° C. Cells were then washed twice with HBSS and transferred to a Fluorostar spectrofluorimeter (BMG, Durham N.C.) for oxazole compound injection and fluorescence measurements.
Various compounds were examined in the calcium mobilization assay for agonist or antagonist activity compared to hC3a and to the known antagonist SB290157.
HMDMs were seeded into black-wall, clear bottom 96-well plates (Corning Incorporated, NY) at 50,000 cells/well and left to incubate at 37° C. with 5% CO2 overnight for cells to adhere. The medium was removed before being washed with the assay buffer (1×HBSS, 20 mM HEPES, 2.5 mM probenecid, pH 7.4). To each well was added 100 μL of dye-loading buffer made up of 12 mL calcium buffer, 1% FBS, 25 μL of Fluo-3 dye (final concentration of 4 μM) and 25 μL of 20% pluronic acid. The plate was covered in aluminium foil to protect the light-sensitive dye and left to incubate at 37° C. for 1 h. The dye-loading buffer was removed before the cells were washed with the assay buffer to remove excess loading dye. To each well was added 50 μL of fresh assay buffer before the plate was loaded into a FLIPR (Fluorescent Imaging Plate Reader) that can inject treatments and measure any calcium release. To generate agonist plots, calcium release was monitored for 300 seconds. To generate antagonist plots, calcium release was recorded for 900 seconds, which at the same time would allow incubation for the antagonists. After the initial incubation period, an agonist would be added and the response was recorded for 300 seconds. Intracellular release of calcium was recorded via fluorescence measurements at wavelength of 485 nm for excitation and 520 nm for emission.

[1] abbreviates: Table 8, HMDM, read-out: Receptor Binding Affinity ^125I IC50.
Where [2] appears, read: Table 6, competitive binding with [^125I]-C3a, HMDM, read-out: IC50 (converted).
The mark [3] stands for this setting: Table 6, competitive binding with [^125I]-C3a, HMDM.
[4] abbreviates: Table 14, binding affinity for C3aR on HMDM, read-out: -Log IC50 (converted).

Read-outs that look alike come from different tables or passages of the source.

Take `COc1ccc(CCC(=O)N[C@@H](CC(C)C)c2nc(C(=O)N[C@@H](CCCNC(=N)N)C(=O)O)c(C)o2)cc1` [Compound 41, 3-(4-Methoxyphenyl)propionic acid-Leucine-5-Methyl-Oxazole-Arginine]: the remaining activity at 20 µM at C3a receptor (C3aR) was found to be 44%. Further, at C3aR, the Emax at 10 µM was 44%.

Usually IC50 stands for the midpoint of a concentration-inhibition curve. Regarding `N=C(N)NCCC[C@H](NC(=O)c1sc(C(c2ccccc2)c2ccccc2)nc1-c1ccccc1)C(=O)O` [Compound 65, 2-Diphenylmethyl-4-phenyl thiazole-5-carboxyl-Arg-OH], the IC50 at C3a receptor (C3aR) (setting [1]) was determined as 3370 nM; on C3aR (Table 10, HMDM), 67000 nM.

On to `Cc1oc(C(c2ccccc2)c2ccccc2)nc1C(=O)N[C@@H](CCCNC(=N)N)C(=O)O` [Compound 61, 2-Diphenylmethyl-5-methyl oxazole-4-carboxyl-Arg-OH], for which the IC50 on C3a receptor (C3aR) (setting [1]) stood at 740 nM; on C3aR (Table 10, HMDM), 30 nM. For the same compound, the “-Log IC50” value on C3a receptor (C3aR) (Table 14, binding affinity for C3aR on HMDM) stood at 8.0. The “Agonist Activity (in words)” value at C3aR (Table 10, HMDM) is “partial agonist”.

In the case of `Cc1oc([C@H](CC(C)C)NC(=O)C2CCCCC2)nc1C(=O)N[C@@H](CCCNC(=N)N)C(=O)O` [Compound 32, Cyclohexane carboxylic acid-Leucine-5-Methyl-Oxazole-Arginine], the remaining activity at 20 µM at C3a receptor (C3aR) worked out at 39%. The Emax at 10 µM at C3aR is 107%.

On to `CC(C)(C)OC(=O)N[C@@H](Cc1ccccc1)c1nc(C(=O)N[C@@H](CCCNC(=N)N)C(=O)O)co1` [Compound 3, Boc-L-Phenylalanine-Oxazole-Arg], for which, at C3a receptor (C3aR) (setting [2]), the IC50 is 509 nM.

Regarding `CC[C@H](C)[C@H](NC(=O)c1ccc(C(=O)c2ccccc2)cc1)c1nc(C(=O)N[C@@H](CCCNC(=N)N)C(=O)O)co1` [Compound 12, 4-Benzoylbenzoic acid-Isoleucine-Oxazole-Arginine-OH], the “pIC50 ± SEM” value on C3a receptor (C3aR) (setting [3]) was 6.80 ± 0.15. The 50% inhibitory concentration (IC50) at C3a receptor (C3aR) (setting [2]) is 157 nM.

What is called EC50 is the midpoint of the concentration-response curve. As to `Cc1[nH]c([C@H](CC(C)C)NC(=O)c2c[nH]c3ccccc23)nc1C(=O)N[C@@H](CCCNC(=N)N)C(=O)O` [Compound 79, 3-Indole carboxylic acid-Leucine-5-methyl-imidazole-Arginine-OH], the 50% inhibitory concentration (IC50) on C3a receptor (C3aR) (setting [2]) is 12 nM. At C3aR (HMDM), the EC50 worked out at 15 nM.

Consider `Cc1oc([C@H](CC(C)C)NC(=O)CC(C)(C)C)nc1C(=O)N[C@@H](CCCNC(=N)N)C(=O)O` [Compound 34, 3,3-Dimethylbutanoic acid-Leucine-5-Methyl-Oxazole-Arginine], for which the remaining activity at 20 µM on C3a receptor (C3aR) came to 44%. Further, the Emax at 10 µM on C3aR turned out to be 70%.

`N=C(N)NCCC[C@H](NC(=O)c1cnc(C(c2ccccc2)c2ccccc2)s1)C(=O)O` [Compound 78]: the half-maximal inhibitory concentration (IC50) on C3a receptor (C3aR) (setting [4]) was 3.98 nM.

With `CC(C)C[C@H](NC(=O)OC(C)(C)C)c1nc(C(=O)N[C@@H](Cc2ccc(C(=N)NO)cc2)C(=O)O)co1` [Compound 84, (S)-2-(2-((S)-1-((tert-butoxycarbonyl)amino)-3-methylbutyl)oxazole-4-carboxamido)-3-(4-(N-hydroxycarbamimidoyl)phenyl)propanoic acid], the IC50 at C3a receptor (C3aR) (setting [2]) is 76 nM.

As to `Cc1oc([C@H](CC(C)C)NC(=O)CCC(C)C)nc1C(=O)N[C@@H](CCCNC(=N)N)C(=O)O` [Compound 35, 4-Methyl valeric acid-Leucine-5-Methyl-Oxazole-Arginine], on C3aR, the Emax at 10 µM was determined as 95%.

For the compound `CC(C)C[C@H](NC(=O)C1c2ccccc2-c2ccccc21)c1nc(C(=O)N[C@@H](CCCNC(=N)N)C(=O)O)co1` [Compound 17, 9-Fluorenecarboxylic acid-Leu-Oxazole-Arginine-OH], the “pIC50 ± SEM” value at C3a receptor (C3aR) (setting [3]) is given as 6.85 ± 0.15. Also, at C3a receptor (C3aR) (setting [2]), the IC50 is 142 nM.

Regarding `CC(C)(C)OC(=O)N[C@@H](Cc1c[nH]c2ccccc12)c1nc(C(=O)N[C@@H](CCCNC(=N)N)C(=O)O)co1` [Compound 4, Boc-L-Tryptophan-Oxazole-Arg], the half-maximal inhibitory concentration (IC50) at C3a receptor (C3aR) (setting [2]) was 2290 nM.

With `Cc1oc([C@H](CC(C)C)NC(=O)c2ccncc2)nc1C(=O)N[C@@H](CCCNC(=N)N)C(=O)O` [Compound 31, Isonicotinic acid-Leucine-5-Methyl-Oxazole-Arginine], the Emax at 10 µM at C3aR amounted to 109%.

Turning to `Cc1c(C(=O)N[C@@H](CCCNC(=N)N)C(=O)O)nc(C(c2ccccc2)c2ccccc2)n1C` [Compound 97, 2-Benzhydryl-1,5-Dimethyl imidazole-4-carboxyl-Arginine], the results for the IC50 at C3a receptor (C3aR) (setting [2]) and on C3a receptor (C3aR) (setting [4]) were 1140 nM and 1260 nM, respectively.

With `Cc1ccc(NC(=O)N[C@@H](CC(C)C)c2nc(C(=O)N[C@@H](CCCNC(=N)N)C(=O)O)c(C)o2)cc1` [Compound 45, p-Tolyl isocyanate-Leucine-5-Methyl-Oxazole-Arginine], the Emax at 10 µM on C3aR came out at 64%.

Take `CC(C)Cc1ccc([C@H](C)C(=O)N[C@@H](CC(C)C)c2nc(C(=O)N[C@@H](CCCNC(=N)N)C(=O)O)co2)cc1` [Compound 14, 2-(4-isobutylphenyl)propanoic acid Leucine-Oxazole-Arginine-OH]: at C3a receptor (C3aR) (setting [2]), the IC50 was 1030 nM.

With `N=C(N)NCCC[C@H](NC(=O)c1ccc(C(c2ccccc2)c2ccccc2)o1)C(=O)O` [Compound 57, 5-Diphenylmethyl-furan-2-carboxyl-Arg-OH], the “Function at C3aR (agonist / antagonist)” value at C3aR (text of Example 100) is reported as “antagonist”.

Consider `CC[C@H](C)[C@H](NC(=O)c1ccc(N(C)C)cc1)c1nc(C(=O)N[C@@H](CCCNC(=N)N)C(=O)O)co1` [Compound 11, 4-(Dimethylamino)benzoic acid-Isoleucine-Oxazole-Arginine-OH], for which the “pIC50 ± SEM” value on C3a receptor (C3aR) (setting [3]) was 6.10 ± 0.16. In addition, at C3a receptor (C3aR) (setting [2]), the IC50 was 800 nM.

On to `COc1cccc(C(=O)N[C@@H](CC(C)C)c2nc(C(=O)N[C@@H](CCCNC(=N)N)C(=O)O)c(C)o2)c1` [Compound 42, m-Anisic acid-Leucine-5-Methyl-Oxazole-Arginine], for which the Emax at 10 µM on C3aR worked out at 134%.

Consider `Cc1oc([C@H](CC(C)C)NC(=O)c2ccc(Oc3ccccc3)cc2)nc1C(=O)N[C@@H](CCCNC(=N)N)C(=O)O` [Compound 49, 4-Phenoxybenzoic acid-Leucine-5-Methyl-Oxazole-Arginine], for which the Emax at 10 µM at C3aR came out at 105%.

Consider `CC(C)C[C@H](NC(=O)[C@@H](C)c1ccc(N2Cc3ccccc3C2=O)cc1)c1nc(C(=O)N[C@@H](CCCNC(=N)N)C(=O)O)co1` [Compound 15, 2-(4-(1-oxoisoindolin-2-yl)phenyl)propanoic acid Leucine-Oxazole-Arginine-OH], for which, on C3a receptor (C3aR) (setting [2]), the IC50 was 451 nM.

`CC(C)C[C@H](NC(=O)OC(C)(C)C)c1nnc(C(=O)N[C@@H](CCCNC(=N)N)C(=O)O)o1` [Compound 83, Boc-Leucine-1-oxa-3,4-diazole-Arginine-OH]: on C3a receptor (C3aR) (setting [2]), the IC50 was 1220 nM.

Consider `CC(C)C[C@H](NC(=O)OC(C)(C)C)c1nc(C(=O)N[C@@H](CCCNC(=N)N[N+](=O)[O-])C(=O)O)co1` [Compound 89, (S)-2-(2-((S)-1-((tert-butoxycarbonyl)amino)-3-methylbutyl)oxazole-4-carboxamido)-5-(3-nitroguanidino)pentanoic acid], for which the IC50 on C3a receptor (C3aR) (setting [2]) was 129 nM.

Consider `Cc1c(C(=O)N[C@@H](CCCNC(=N)N)C(=O)O)nc([C@H](CC(C)C)NC(=O)OC(C)(C)C)n1C` [Compound 81, Boc-Leucine-1-methylimidazole-Arginine-OH], for which the EC50 at C3aR (HMDM) is 60 nM.
